Measured values as given in patent publication US6110963A, “Aryl-oxo-acetic acids useful in the treatment of insulin resistance and hyperglycemia” (American Home Products Corporation, priority 1999, dated 2000).
Like-named read-outs stand apart in the source and are kept apart here.

Assays:
[1] = target: T1, Human recombinant PTP1B (hPTP1B) (Homo sapiens, UniProt P18031); format: biochemical; details: for IC50: recombinant PTP1B, malachite green phosphate detection; for inhibition at 2.5 µM: read-out: change of PTP1B activity (percent of phosphatase control) at single concentration
T1 construct: made in house
T1 sequence (P18031 1-435): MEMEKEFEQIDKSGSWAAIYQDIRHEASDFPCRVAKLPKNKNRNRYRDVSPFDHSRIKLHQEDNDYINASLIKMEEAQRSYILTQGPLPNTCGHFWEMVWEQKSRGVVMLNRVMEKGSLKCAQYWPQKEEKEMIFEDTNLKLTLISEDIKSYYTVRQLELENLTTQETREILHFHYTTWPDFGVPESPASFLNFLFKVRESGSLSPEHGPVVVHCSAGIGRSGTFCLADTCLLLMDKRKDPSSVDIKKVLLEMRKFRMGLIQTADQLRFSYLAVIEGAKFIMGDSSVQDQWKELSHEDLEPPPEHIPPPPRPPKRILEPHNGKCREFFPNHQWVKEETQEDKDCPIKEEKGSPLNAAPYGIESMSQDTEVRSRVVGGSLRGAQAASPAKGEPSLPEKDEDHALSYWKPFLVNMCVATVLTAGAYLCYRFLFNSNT

[2] = tested on: rat hepatic microsomal PTPases; details: PTPase activity, compound at 50 μM, rat liver microsomes
diabetic (ob/ob) mice = test: Blood glucose lowering activity in diabetic (ob/ob) mice; format: in vivo, mouse; details: 100 mg/Kg; for % Change Glucose from Vehicle: plasma glucose
Text: The procedures used and results obtained are briefly described below.
The non-insulin dependent diabetic (NIDDM) syndrome can be typically characterizes by obesity, hyperglycemia, abnormal insulin secretion, hyperinsulinemia and insulin resistance.
In each test procedure, mice [Male or female ob/ob (C57 B1/6J) and their lean litermates (ob/+ or +/+, Jackson Laboratories) ages 2 to 5 months (10 to 65 g)] of a similar age were randomized according to body weight into 4 groups of 10 mice. The mice were housed 5 per cage and are maintained on normal rodent chow with water ad libitum. Mice received test compound daily by gavage (suspended in 0.5 ml of 0.5% methyl cellulose); dissolved in the drinking water; or admixed in the diet. The dose of compounds given ranges from 2.5 to 200 mg/kg body weight/day. The dose is calculated based on the fed weekly body weight and is expressed as active moiety. […] Control mice received vehicle only.
On the morning of Day 4, 7 or 14 two drops of blood (approximetly 50 ul) were collected into sodium fluoride containing tubes either from the tail vein or after decapitation. For those studies in which the compound was administered daily by gavage the blood samples were collected two hours after compound administration. The plasma was isolated by centrifugation and the concentration of glucose is measured enzymatically on an Abbott V. P. Analyzer.
For each mouse, the percentage change in plasma glucose on Day 4, 7 or 14 is calculated relative to the mean plasma glucose of the vehicle treated mice. Analysis of variance followed by Dunett's Comparison Test (one-tailed) are used to estimate the significant difference between the plasma glucose values from the control group and the individual compound treated groups (CMS SAS Release 5.18).

IC50 [1] [µM]	% Change from Control [2] [%]	Compound	other results
–	-20	CCCCc1oc2ccccc2c1C(=O)c1ccc(-c2ccc(O)cc2)cc1 [Example 15, (2-Butyl-benzofuran-3-yl)-(4'-hydroxy-biphenyl-4-yl)-methanone]	inhibition at 2.5 µM [1]: 53%
1.19	-28	CCCCc1oc2ccccc2c1Cc1ccc(-c2ccc(O)cc2)cc1 [Example 16]	–
1.15	-76	CCCCc1oc2ccccc2c1Cc1ccc(-c2ccc(OCC(=O)O)cc2)cc1 [Example 17]	–
0.51	–	CCCCc1oc2ccccc2c1Cc1ccc(-c2ccc(OCc3nnn[nH]3)cc2)cc1 [Example 18]	–
0.54	-24	CCCCc1oc2ccccc2c1C(O)c1ccc(-c2ccc(OCC(=O)O)cc2)cc1 (stereo not shown) [Example 19, {4'-[(2-Butyl-benzofuran-3-yl)-hydroxy-methyl]-biphenyl-4-yloxy}-acetic acid]	–
1.4	-22	CCCCc1oc2ccccc2c1C(O)c1ccc(-c2cc(Br)c(O)c(Br)c2)cc1 (stereo not shown) [Example 20, 3,5-Dibromo-4'-[(2-butyl-benzofuran-3-yl)-hydroxy-methyl]-biphenyl-4-ol]	–
–	-38	CCCCc1oc2ccccc2c1C(O)c1ncc(-c2ccc(OC)cc2)o1 (stereo not shown) [Example 22, (2-Butyl-benzofuran-3-yl)-[5-(4-methoxy-phenyl)-oxazole-2-yl]-methanol]	–
1.36	–	CCCCc1oc2ccccc2c1C(=O)c1nc(Br)c(-c2ccc(OC)cc2)o1 [Example 25, [4-Bromo-5-(4-methoxy-phenyl)-oxazol-2-yl]-(2-butyl-benzofuran-3-yl)-methanone]	–
1.24	–	CCCCc1oc2cc(Br)ccc2c1Cc1nc(Br)c(-c2ccc(OC)cc2)o1 [Example 26]	–
1	–	CCCCc1oc2ccccc2c1C(Sc1nc2ccccc2s1)c1ccc2cc(O)ccc2c1 (stereo not shown) [Example 27]	–
1.16	–	CCCCc1oc2ccccc2c1C(Sc1nc2ccccc2s1)c1ccc(-c2ccc(O)cc2)cc1 (stereo not shown) [Example 28, 4'-[(2-Butyl-benzofuran-3-yl)-(benzothiazol-2-ylsulfanyl)-methyl]-biphenyl-4-ol]	–
1.86	-24	CCCCCCCC(Sc1nc2ccccc2s1)c1cc2ccccc2s1 (stereo not shown) [Example 29, 2-[1-(Benzorblthiophen-2-yl)-octylsulfanyl]-benzothiazole]	–
0.58	–	CCCCc1oc2ccccc2c1C(Sc1nc2ccccc2s1)c1ccc(Br)cc1 (stereo not shown) [Example 30, 2-[(4-Bromo-phenyl)-(2-butyl-benzofuran-3-yl)-methylsulfanyl]-benzothiazole]	–
0.59	–	CCCCc1oc2ccccc2c1C(Sc1nc2ccccc2s1)c1ccc(Br)c2ccccc12 (stereo not shown) [Example 31, 2-[(4-Bromo-naphthalen-1-yl)-(2-butyl-benzofuran-3-yl)-methylsulfanyl]-benzothiazole]	–
1	–	CCCCc1oc2ccccc2c1C(Sc1nc2ccccc2s1)c1ccccc1 (stereo not shown) [Example 32]	–

Second part, the compound before the results:

Compound	IC50 [1] [µM]	% Change from Control [2] [%]	other results
CCCCc1oc2ccccc2c1C(O)c1ccc2cc(O)ccc2c1 (stereo not shown) [Example 1]	1.16	-31	–
CCCCc1oc2ccccc2c1Cc1ccc2cc(O)ccc2c1 [Example 2]	1.35	-37	–
CCCCc1oc2ccccc2c1Cc1ccc2c(Br)c(O)ccc2c1 [Example 3, 1-Bromo-6-(2-butyl-benzofuran-3-ylmethyl)-naphthalen-2-ol]	0.33	-37	–
CCCCc1oc2ccccc2c1Cc1ccc2c(Br)c(OCC(=O)O)ccc2c1 [Example 4, [1-Bromo-6-(2-butyl-benzofuran-3-ylmethyl)-naphthalen-2-yloxy]-acetic acid]	1.44	-65	–
CCCCc1oc2ccccc2c1Cc1ccc2c(Br)c(OC(Cc3ccccc3)C(=O)O)ccc2c1 (stereo not shown) [Example 5, 2-[1-Bromo-6-(2-butyl-benzofuran-3-ylmethyl)-naphthalen-2-yloxy]-3-phenylpropionic acid]	0.37	-59	% Change Glucose from Vehicle (diabetic (ob/ob) mice): -25.6%
CCCCc1oc2ccccc2c1Cc1ccc2c(Br)c(OCc3nnn[nH]3)ccc2c1 [Example 6, 5-[1-Bromo-6-(2-butyl-benzofuran-3-ylmethyl)-naphthalen-2-yloxymethyl]-1H-tetrazole]	0.7	-62	–
CCCCc1oc2ccccc2c1Cc1ccc2c(I)c(O)ccc2c1 [Example 7, 6-(2-Butyl-benzofuran-3-ylmethyl)-1-iodo-naphthalen-2-ol]	0.31	-24	–
CCCCc1oc2ccccc2c1Cc1ccc2c(I)c(OC(Cc3ccccc3)C(=O)O)ccc2c1 (stereo not shown) [Example 8]	0.31	-58	% Change Insulin from Vehicle (diabetic (ob/ob) mice): -33%; % Change Glucose from Vehicle (diabetic (ob/ob) mice): -11%
CCCCc1oc2ccccc2c1C(O)c1ccc2c(Br)c(O)ccc2c1 (stereo not shown) [Example 9, 1-Bromo-6-[(2-butyl-benzofuran-3-yl)-hydroxy-methyl]-naphthalen-2-ol]	0.48	–	% Change Insulin from Vehicle (diabetic (ob/ob) mice): -38%
CCCCc1oc2ccccc2c1C(=O)c1ccc2c(Br)c(OCC(=O)O)ccc2c1 [Example 10, [1-Bromo-6-(2-butyl-benzofuran-3-carbonyl)-naphthalen-2-yloxy]-acetic acid]	–	-69	inhibition at 2.5 µM ([1]; compound at 2.5 uM): 46%
CCCCc1oc2ccccc2c1C(=O)c1ccc2c(Br)c(OC(Cc3ccccc3)C(=O)O)ccc2c1 (stereo not shown) [Example 11, 2-[1-Bromo-6-(2-butyl-benzofuran-3-carbonyl)-naphthalen-2-yloxy]-3-phenylpropionic acid]	1.23	-77	–
CCCCc1oc2ccccc2c1C(=O)c1ccc2c(Br)c(OCc3nnn[nH]3)ccc2c1 [Example 12, [5-bromo-6-(1H-tetrazol-5-ylmethoxy)-naphthalen-2-yl]-(2-butyl-benzofuran-3-yl)methanone]	1.13	-70	% Change Insulin from Vehicle (diabetic (ob/ob) mice): 12%; % Change Glucose from Vehicle (diabetic (ob/ob) mice): -24.8%
Oc1ccc2cc(Cc3c(Cc4ccccc4)sc4ccccc34)ccc2c1Br [Example 13, 6-(2-Benzyl-benzo[b]thiophen-3-ylmethyl)-1-bromo-naphthalen-2-ol]	1.04	-37	–
CCCCc1oc2ccccc2c1C(O)c1ccc(-c2ccc(O)cc2)cc1 (stereo not shown) [Example 14, 4'-[(2-Butyl-benzofuran-3-yl)-hydroxy-methyl]-biphenyl-4-ol]	0.23	–	–
Oc1ccc(-c2ccc(C(O)c3c(Cc4ccccc4)sc4ccccc34)cc2)cc1 (stereo not shown) [Example 21, 4'-[(2-Benzyl-benzorblthiophen-3-yl)-hydroxy-methyl]-biphenyl-4-ol]	–	–	inhibition at 2.5 µM ([1]; compound at 2.5 uM): 36%
CCCCc1oc2ccccc2c1C(=O)c1ncc(-c2ccc(OC)cc2)o1 [Example 23, (2-Butyl-benzofuran-3-yl)-[5-(4-methoxy-phenyl)-oxazole-2-yl]-methanone]	–	–	inhibition at 2.5 µM ([1]; compound at 2.5 uM): 55%
CCCCc1oc2ccccc2c1Cc1ncc(-c2ccc(OC)cc2)o1 [Example 24, 2-(2-Butyl-benzofuran-3-ymethyl)-5-(4-methoxy-phenyl)-oxazole]	–	–	inhibition at 2.5 µM ([1]; compound at 2.5 uM): 35%
Brc1cc(Cc2ccc3ccccc3c2)cc(Br)c1OCc1nnn[nH]1 [Example 34, 5-[2,6-Dibromo-4-(naphthalen-2-ylmethyl)-phenoxymethyl]-1H-tetrazole]	–	–	% Change Insulin from Vehicle (diabetic (ob/ob) mice): -18%; % Change Glucose from Vehicle (diabetic (ob/ob) mice): -27.8%
